Measured values reported in patent US7037644B1, “Means and methods for monitoring non-nucleoside reverse transcriptase inhibitor antiretroviral therapy and guiding therapeutic decisions in the treatment of HIV/AIDS” (ViroLogic, Inc., priority 1998, dated 2006).
Several values for one entry are separate records, joined by “and”; a condition that tells them apart may be missing. Equal values may be shown once. Entries after “also recorded” stand apart in the source; their conditions may differ.

How the values were obtained:
Assay in all cases: Phenotypic susceptibility assay (site directed mutant RTV)
Format in all cases: cell-based, HIV-1
[1] = test system: A98G-RTV; details: for loss of susceptibility (fold, IC50) vs wild type control RTV: A98G alone; for change in susceptibility: mutation at codon 98
Text: (§1) The resistance test vectors containing a functional luciferase gene cassette were constructed and host cells were transfected with the resistance test vector DNA. The resistant test vectors contained patient-derived reverse transcriptase and protease sequences that were either susceptible or resistant to the antiretroviral agents, such as nucleoside reverse transcriptase inhibitors, non-nucleoside reverse transcriptase inhibitors and protease inhibitors. The resistance test vector viral particles produced by transfecting the resistance test vector DNA into host cells, either in the presence or absence of protease inhibitors, were used to infect target host cells grown either in the absence of NRTI or NNRTI or in the presence of increasing concentrations of the drug. The amount of luciferase activity produced in infected target host cells in the presence of drug was compared to the amount of luciferase produced in infected target host cells in the absence of drug. Drug resistance was measured as the amount of drug required to inhibit by 50% the luciferase activity detected in the absence of drug (inhibitory concentration 50%, IC50). The IC50 values were determined by plotting percent drug inhibition vs. log10 drug concentration.
(§2) Host cells were seeded in 10-cm-diameter dishes and were transfected several days after plating with resistance test vector plasmid DNA and the envelope expression vector. Transfections were performed using a calcium-phosphate precipitation procedure. The cell culture media containing the DNA precipitate was replaced with fresh medium, from one to 24 hours, after transfection. Cell culture media containing resistance test vector viral particles was harvested one to four days after transfection and was passed through a […] filter before being stored at […]. HIV capsid protein (p24) levels in the harvested cell culture media were determined by an EIA method as described by the manufacturer (SIAC; Frederick, Md.). Before infection, target cells (293 and 293/T) were plated in cell culture media. Control infections were performed using cell culture media from mock transfections (no DNA) or transfections containing the resistance test vector plasmid DNA without the envelope expression plasmid. One to three or more days after infection the media was removed and cell lysis buffer (Promega) was added to each well. Cell lysates were assayed for luciferase activity (FIG. 3). The inhibitory effect of the drug was determined using the following equation: % luciferase inhibition=1−(RLUluc [drug]÷RLUluc)×100 where RLUluc [drug] is the relative light unit of luciferase activity in infected cells in the presence of drug and RLUluc is the Relative Light Unit of luciferase activity in infected cells in the absence of drug. IC50 values were obtained from the sigmoidal curves that were generated from the data by plotting the percent inhibition of luciferase activity vs. the log10 drug concentration. The drug inhibition curves are shown in (FIG. 3).
The A98G mutation into the resistance test vector using the mega-primer method for site-directed mutagenesis (Sakar and Sommar, Ibid.). A resistance test vector containing the A98G mutation (A98G-RTV) was then tested using the phenotypic assay described earlier and the results were compared to those determined using a genetically defined resistance test vector that was wild type at position 98. We determined the pattern of phenotypic susceptibility to the NNRTIs, delavirdine, nevirapine and efavirenz, in the A98G-RTV.

[2] = test system: A98G-G190S-RTV; details: for change in susceptibility (fold, IC50) vs wild type control RTV: A98G and G190S, below 1 = increased susceptibility; for change in susceptibility: mutations at codons 98 and 190
Text: as §1, §2
The A98 and G190S mutations were introduced alone or in combination into the resistance test vector using the mega-primer method for site-directed mutagenesis (Sakar and Sommar, Ibid.). Resistance test vectors containing the A98G mutation (A98G-RTV), the G190S mutation (G190S-RTV) and both mutations (A98G-G190S-RTV) were then tested using the phenotypic assay described earlier and the results were compared to those determined using a genetically defined resistance test vector that was wild type at position 98 and 190. We determined the pattern of phenotypic susceptibility to the NNRTIs, delavirdine, nevirapine and efavirenz, in the three vectors.

[3] = test system: V108I-RTV; details: for change in susceptibility (fold, IC50) vs wild type control RTV: V108I alone; for change in susceptibility: mutation at codon 108
Text: as §1, §2
The V108I mutation was introduced into the resistance test vector using the mega-primer method for site directed mutagenesis (Sakar and Sommar, Ibid.). A resistance test vector containing the V108I mutation (V108I-RTV) was then tested using the phenotypic assay described earlier and the results were compared to those determined using a genetically defined resistance test vector that was wild type at position 108. We determined the pattern of phenotypic susceptibility to the NNRTIs, delaviridine, nevirapine and efavirenz, in the V108I-RTV.

[4] = test system: F227L-RTV; details: F227L alone; below 1 = increased susceptibility
Text: as §1, §2
(§3) The mutations V106A, V189L, V181C an F227L were introduced alone and in combination into resistance test vectors using the mega-primer method for site-directed mutagenesis (Sakar and Sommar, Ibid.). Resistance test vectors containing the V106A mutation (V106A-RTV), the V189L mutation (V189L-RTV), the V181C mutation (V181C-RTV) and E227L mutation (F2271-RTV) and two mutations (V106A-Y181C-RTV) and (V106A-V189L-RTV) and (V106A-F227-RTV) and (V181C-F227-RTV) and three mutations, (V106A-Y181C-F227L-RTV) were then tested using the phenotypic assay described earlier and the results were compared to those determined using a genetically defined resistance test vector that was wild type at positions 106, 189, 181 and 227. We determined the pattern of phenotypic susceptibility to the NNRTIs, delavirdine, nevirapine and efavirenz, in all nine vectors.

[5] = test system: V106A-F227-RTV; details: for loss of susceptibility (fold, IC50) vs wild type control RTV: V106A and F227L; for change in susceptibility: mutations at 106 and 227
Text: as §1, §2, §3

[6] = test system: V106A-RTV; details: V106A alone
Text: as §1, §2, §3

[7] = test system: V106A-V189L-RTV; details: for change in susceptibility (fold, IC50) vs wild type control RTV: V106A and V189L; for change in susceptibility: mutations at 106 and 189
Text: as §1, §2, §3

[8] = test system: V106A-Y181C-F227L-RTV; details: for loss of susceptibility (fold, IC50) vs wild type control RTV: V106A, Y181C and F227L; for change in susceptibility: mutations at 106 and 181 and 227
Text: as §1, §2, §3

[9] = test system: V106A-Y181C-RTV; details: for loss of susceptibility (fold, IC50) vs wild type control RTV: V106A and Y181C; for change in susceptibility: mutations at 106 and 181
Text: as §1, §2, §3

[10] = test system: V189L-RTV; details: V189L alone
Text: as §1, §2, §3

[11] = test system: Y181C-F227L-RTV; details: for change in susceptibility (fold, IC50) vs wild type control RTV: Y181C and F227L, below 1 = increased susceptibility; for change in susceptibility: mutations at 181 and 227
Text: as §1, §2, §3

SMILES	loss of susceptibility (fold, IC50) vs wild type control RTV [1] [fold]	change in susceptibility [1]	change in susceptibility (fold, IC50) vs wild type control RTV [2]	change in susceptibility [2]	change in susceptibility (fold, IC50) vs wild type control RTV [3] [fold]	change in susceptibility [3]	change in susceptibility (fold, IC50) vs wild type control RTV [4]	loss of susceptibility (fold, IC50) vs wild type control RTV [5]	change in susceptibility [5]	change in susceptibility (fold, IC50) vs wild type control RTV [6] [fold]	change in susceptibility (fold, IC50) vs wild type control RTV [7] [fold]	change in susceptibility [7]	loss of susceptibility (fold, IC50) vs wild type control RTV [8]	change in susceptibility [8]	loss of susceptibility (fold, IC50) vs wild type control RTV [9]	change in susceptibility [9]	change in susceptibility (fold, IC50) vs wild type control RTV [10] [fold]	change in susceptibility (fold, IC50) vs wild type control RTV [11] [fold]	change in susceptibility [11]
CC(C)Nc1cccnc1N1CCN(C(=O)c2cc3cc(NS(C)(=O)=O)ccc3[nH]2)CC1 [delavirdine]	3	slight decrease	0.8 fold	increase	1.3	no change	0.03 fold	3 fold	slight decrease	5	3	slight decrease; also recorded: alight decrease	50 fold	moderate decrease	100 fold	significant decrease	1.8	0.89	increase
O=C1Nc2ccc(Cl)cc2[C@@](C#CC2CC2)(C(F)(F)F)O1 [efavirenz]	3	slight decrease	greater than 250 fold	substantial decrease	1.7	no change	0.48 fold and 0.4 fold	8 fold	slight decrease	1.7	1	no change	12 fold	slight decrease	4 fold	slight decrease	1.3	0.99	increase
Cc1ccnc2c1NC(=O)c1cccnc1N2C1CC1 [nevirapine]	8	slight decrease	greater than 800 fold	substantial decrease	3	slight decrease	3 fold	greater than 800 fold	substantial decrease	60	50	moderate decrease	greater than 800 fold	substantial decrease	greater than 800 fold	substantial decrease	1.3	285	significant decrease
